Our source for the relative viability values is the supplement of paper PMC10307832.

Experiment in all cases: relative viability (nuclei count vs DMSO), 5 days (fraction); higher = more cells survive
Compound in one assay: C=CC(=O)N1CCC[C@@H](n2nc(-c3ccc(Oc4ccccc4)cc3)c3c(N)ncnc32)C1 [Ibrutinib]
The essentials:
(§1)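 Acceptance criteria were a control CV below 25% and at least one doubling per plate. Lung cancer cell lines in 1536-well plates got five library-drug doses (not always all listed) √10 apart by pinning and were left 5 days with no medium change. Viability divides treated-well nuclei by vehicle-well nuclei and is the median across plates. Nuclei were counted by MetaXpress from 4× Hoechst images.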

Compound in the next assay: C=CC(=O)Nc1cc(-n2c(=O)ccc3cnc4ccc(-c5ccc(NS(C)(=O)=O)cc5)cc4c32)ccc1C [BMX-IN-1]
The essentials:
as §1

Compound in another assay: C=CCc1cccc(/C=N/NC(=O)CN2CCN(Cc3ccccc3)CC2)c1O [PAC-1]
The essentials: as §1

Compound in the assay “PAC-1 + Vorinostat”: C=CCc1cccc(/C=N/NC(=O)CN2CCN(Cc3ccccc3)CC2)c1O [PAC-1] + O=C(CCCCCCC(=O)Nc1ccccc1)NO [Vorinostat] (partner 1 µM)
Put shortly:
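Values are medians from duplicate plates. Each reflects relative viability, defined as the nuclei count of treated wells over that of vehicle wells. Lung cancer cell lines in 1536-well plates were pin-tool dosed one day after seeding with one drug alone or with a fixed anchor-drug dose plus five library-drug doses (not always all listed) in √10 steps, then fixed, stained and imaged at 4× after 5 days.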

On to SK-MES-1, for which the relative viability stood at 0.989 with Ibrutinib (0.01581 µM); 0.888 in the assay with Ibrutinib (0.05 µM); 1.02 in the assay with Ibrutinib (0.1581 µM); 0.543 with Ibrutinib (0.5 µM); 1.1 with BMX-IN-1 (0.02 µM); 1.1 in the assay with BMX-IN-1 (0.2 µM). For the same cell line, the relative viability with BMX-IN-1 (0.6325 µM) was 1.11; with BMX-IN-1 (2 µM), 0.998; with PAC-1 (0.02 µM), 0.974; with PAC-1 (0.06325 µM), 0.987; in the assay with PAC-1 (0.2 µM), 0.94; with PAC-1 (2 µM), 1.02. The relative viability in the assay with PAC-1 + Vorinostat (first compound 0.02 µM) is 1.18; in the assay with PAC-1 + Vorinostat (first compound 0.06325 µM) it was 1.09; with PAC-1 + Vorinostat (first compound 0.2 µM) it was 1.02; with PAC-1 + Vorinostat (first compound 2 µM), 1.17.
